Data published in patent US10688092B2, “Compositions and methods of using nintedanib for improving glaucoma surgery success” (Cloudbreak Therapeutics, LLC, priority 2016, dated 2020).

Key:
[1] = system: rabbit model of glaucoma filtration surgery; test: Rabbit glaucoma filtration surgery model; type: in vivo, New Zealand White rabbits
From the text: The rabbit glaucoma surgery model is used to illustrate use of the presently disclosed methods for improving the success of glaucoma filtration surgery. Specifically, an established rabbit model of glaucoma filtration surgery would be used to study the effects of nintedanib 0.2% solution on the wound-healing events after surgery. The surgical procedure is as described in Wong et al. (Wong et al. Invest Ophthalmol Vis Sci. 2003; 44(3):1097-1103). Briefly, a partial thickness 8-0 silk corneal traction suture is placed superiorly, and the eye pulled down. A fornix based conjunctival flap is raised, after which a blunt dissection of the subconjunctival space is performed of approximately 5 mm along the limbus and 8 mm posteriorly. A microvitreoretinal (MVR) blade is used to make a partial-thickness scleral incision 3 to 4 mm behind the limbus, and a scleral tunnel to the corneal stroma is fashioned. A 22-gauge, 25-mm intravenous cannula (Venflon 2; Beckton Dickinson, Oxford, UK) is passed through a scleral tunnel anteriorly until the cannula needle is visible in the clear cornea. Entry into the anterior chamber is made with a cannular needle, which is then withdrawn as the cannula is advanced to the mid-pupillary area. The cannula is trimmed and beveled at its scleral end so that it protrudes 1 mm from the insertion point, and a 10-0 nylon suture is placed to fix the tube to the scleral surface. The conjunctival incision is closed with two interrupted sutures and a central, mattress-type 10-0 nylon suture attached to a needle (B/V 100-4; Ethicon) to give a water-tight closure. One drop each of guttae chloramphenicol and Betnesol-N(Glaxo Wellcome, Uxbridge, UK) ointment is instilled at the end of surgery.
Twenty female New Zealand White rabbits (2-2.4 kg, 12-14 weeks old; Charles River) would be acclimatized for 5 days before the experiments start. Glaucoma surgery would be performed on the left eye as described. After surgery, the rabbits would be arranged into two groups and one group would be treated with vehicle and another with nintedanib 0.2% solution. Treatments would begin immediately after surgery and the treatment would be TID for 2 weeks. The survival of the bleb formed by the surgery and the intraocular pressure (IOP) would be followed for 28 days. Histological analysis of the scar tissue would be performed at the end of the study.

[2] = system: patients with medically uncontrolled open-angle glaucoma scheduled for a primary trabeculectomy; test: Clinical study of topical nintedanib 0.2% as adjunct therapy to trabeculectomy; type: in vivo, human
From the text: Topical nintedanib 0.2% as adjunct therapy to increase success of trabeculectomy in a clinical study. A randomized, double-masked, placebo-controlled, 12-month experimental trial to test the effects of topical nintedanib 0.2% on the success rate of trabeculectomy. The study design would be as described by Vandewalle et. al. (Vandewalle et. al. Br J Ophthalmol. 2014, January; 98(1):73-8).
Patients with medically uncontrolled open-angle glaucoma scheduled for a primary trabeculectomy would be enrolled and randomized to receive one drop TID of either nintedanib or placebo solutions. The treatment would start immediately after surgery and would last for a month. Approximately 150 patients would be enrolled in the study.
Surgeries would be performed under general or retrobulbar anaesthesia by experienced surgeons using a modified Moorfields technique. IOP would be measured by Goldmann applanation tonometry. Two measurements would be taken by masked observers and averaged to determine the mean IOP if two values were within 2 mm Hg. A third measurement would be taken if the difference between the first two determinations is >2 mm Hg.
Patients would be examined on day 1; at weeks 1, 2, and 4; and at months 3, 6, and 12 after trabeculectomy. […] The number of postoperative IOP-lowering medications, intra- and postoperative complications, and surgical interventions would also be recorded. […]

COC(=O)c1ccc2c(c1)NC(=O)/C2=C(\Nc1ccc(N(C)C(=O)CN2CCN(C)CC2)cc1)c1ccccc1 [nintedanib, Methyl (3Z)-3-{[(4-{methyl[(4-methylpiperazin-1-yl)acetyl]amino}phenyl)amino] (phenyl)methylidene}-2-oxo-2,3-dihydro-1H-indole-6-carboxylate]
bleb survival at end of study ([1]; day 28, no bleb would survive in the vehicle group): most of the bleb would survive
histological analysis of scar tissue at the surgical site ([1]; end of study, compared with vehicle group): less scar tissue
Surgery success outcome ([1]; nintedanib 0.2% solution TID for 2 weeks after surgery, compared with vehicle group): significantly prolonged
bleb survival (survival curve of the bleb after surgery, FIG. 2) ([1]; nintedanib 0.2% solution TID for 2 weeks, followed for 28 days, compared with vehicle group): substantially prolonged
IOP during the follow up period after the surgery (FIG. 3) ([1]; nintedanib 0.2% solution TID for 2 weeks, followed for 28 days, IOP increased gradually in vehicle group): below 20 mm
IOP compared to baseline ([2]; 12-month visit, one drop TID for a month after surgery): effectively reduced
absolute success rate of glaucoma surgery (FIG. 4) ([2]; vs the placebo group, differences statistically significant at time points after 6 months): higher
